Results from paper PMC9143043, “Synthesis and Biological Evaluation of 5′-O-Fatty Acyl Ester Derivatives of 3′-Fluoro-2′,3′-dideoxythymidine as Potential Anti-HIV Microbicides” (Molecules, 2022).
“Also recorded” adds a separate entry of the source. Like-named read-outs stand apart in the source and are kept apart here.

What was measured:
[1] = test system: CCRF-CEM cells; assay: Real-time fluorescence microscopy in live cells; assay type: cell-based, human; conditions: 10 µM, 1 h
Procedure: Cells incubated with 10 µM of DMSO, FAM, 23 and 24 for 1 h were used for real time fluorescence microscopy using transmitted light microscopy equipped with a differential-interference contrast method and an Achroplan 40× objective.
The products were purified on a Phenomenex®Gemini 10 µm ODS reversed-phase column (2.1 × 25 cm) with a Hitachi HPLC system using a gradient increment in the acetonitrile (0.1%TFA) concentration from 0 to 100% in 45 min at a constant flow rate of 17 mL/min. The purity of the compounds was confirmed by using an analytical Hitachi analytical HPLC system on a C18 column (Grace Allsphere ODS 2–3 µ, 150 × 4.6 mm) using a gradient system (water:acetonitrile 30:70 v/v) at a constant flow rate of 1 mL/min with a UV detection at 265 nm. The chemical structures of the final products were characterized by nuclear magnetic resonance spectrometry (^1H NMR and ^13C NMR) determined on a Bruker NMR spectrometer (400 MHz, Daltonik, Bremen, Germany) and confirmed by a high-resolution PE Applied Biosystems Mariner API time-of-flight electrospray mass spectrometer (Waltham, MA, USA). Chemical shifts are reported in parts per millions (ppm). For cellular uptake studies, cells were analyzed by flow cytometry (FACSCalibur: Becton Dickinson, San Jose, CA, USA) using the FITC channel and CellQuest software 7.5.3 (Becton Dickinson, San Jose, CA, USA). […]

[2] = test system: CCRF-CEM cells; assay: Cell viability study (trypan blue, Cellometer); assay type: cell-based, human; conditions: 10 µM, 24 h incubation
Procedure: Cell viability study was performed to analyze the effect of FAM, 23, and 24 on the live cells. The CCRF-CEM cells were incubated with 10 µM of the compounds and mixed with trypan blue (0.1%) to color the dead cells. The percentage of viability was calculated by using Cellometer Auto T.4 (Nexcelom Bioscience). It was observed that at least 80% of the cells were viable in the presence of the compounds in a 24 h incubation period (Supporting Materials, Figure S1).
(§1) Human T lymphoblastoid cells (CCRF-CEM, ATCC No. CCL-119) were grown to 70% confluency in a culture medium. CCRF-CEM cells were incubated with 10 µM of the compounds and mixed with trypan blue (0.1%) to color the dead cells. The percentage of viability was calculated by using a Cellometer Auto T.4 (Nexcelom Bioscience). The cell viability against the vaginal cells (VK-2/E6E7) was conducted according to the previously reported procedure. The effect of conjugates on the sperm viability and mobility was evaluated as described previously.

[3] = test system: HIV-infected T4 lymphocytes; set-up: method as in PMID 9191015; conditions: read-out: EC50 against HIV-infected T4 lymphocytes; cited from earlier work
[4] = Cytotoxicity assay (MTS); assay type: cell-based; conditions: human, HeLa cells (ATCC CCL-2.1)
[5] = test system: HIV-1 strain IIIB (lymphocytotropic strain); assay: Single-round infection assay, cell-free X4 virus (lymphocytotropic strain); assay type: cell-based
Procedure: (§2) Anti-HIV activities of the compounds were evaluated according to the previously reported procedure. In summary, the HeLa (Human cervical carcinoma: ATCC CCL-2.1) cell line was used to measure the inactivation of both the cell-free virus preparations and virus-infected cell preparations. The cells were plated in culture plates 24 h prior to each experiment. Cell-free viral preparations of HIV-1 strains IIIB (lymphocytotropic strain) and BaL (monocytotropic strain) were used for the cell-free assay. For the cell-associated assay, the SulT1 cells were infected with IIIB virus 5 days prior to the experiment. Cell-free virus and virus-infected cells were mixed with different compounds and diluted to make different concentrations. The mixture was further diluted with the buffer and added to the HeLa cells.

[6] = test system: HIV-1 strain BaL (monocytotropic strain); assay: Single-round infection assay, cell-free R5 virus (monocytotropic strain); assay type: cell-based; conditions: Human immunodeficiency virus 1, BAL
Procedure: as §2

[7] = test system: cell-associated HIV-1 IIIB (infected SulT1 cells); assay: Cell-associated transmission assay (IIIB); assay type: cell-based; conditions: for EC50: Human immunodeficiency virus 1, IIIB
Procedure: as §2

[8] = test system: sperm; assay: Spermicidal activity (sperm viability and motility); assay type: cell-based; conditions: abstract; versus N-9 positive control
Procedure: In this study, several fatty acyl conjugates of nucleosides (5–8, 10–12, 15, and 16) were tested for their spermicidal activities. […] Detailed data analysis is available in the Supplementary Materials (Figure S2).
as §1

[9] = test system: human vaginal cells (VK-2/E6E7); assay: Vaginal cell cytotoxicity (MTS assay); assay type: cell-based; conditions: 6 h incubation; 31-1000 µg/mL
Procedure: A commercially used spermicidal agent (N-9) and conjugate cytotoxicity was evaluated using immortalized human vaginal cells (VK-2/E6E7). […] Observed cytotoxicity from N-9 could be correlated with the generation of higher levels of cytokines by N-9.
as §1
Figure 2 (A) Dose–response curves of the vaginal cytotoxicity in VK-2 cells (MTS assay) for 5, 6, 8, and N-9 after 6 h incubations. (B) Proinflammatory cytokine (IL-1α) production in the VK-2 cells (ELISA) after a 6 h incubation in the presence of 5, 6, 8, and N-9.

[10] = test system: HIV-1; assay: Anti-HIV activity overall (cell-free and cell-associated assays) and antiviral index; assay type: cell-based; conditions: for antiviral index, times better than AZT: versus AZT; for antiviral index, times better than FLT: versus FLT
Description: Table 2, Table 3 and Table 4 illustrate the anti-HIV-1 activities against the cell-free, cell-associated, and multidrug-resistant virus and sperm inhibiting properties of the selected compounds. In summary, the anti-HIV activity of 5′-substituted derivatives of FLT and AZT (5–18) was dependent on the nature of the 5′-substituent. […] None of the other esters were active against cell-associated virus. […] The difference in the activity of fatty acyl derivatives of FLT compared to each other and FLT may be due to their differences in the rate of uptake and intracellular hydrolysis.
By design, the ester moiety in the conjugates needs to be hydrolyzed to render parent nucleosides and fatty acids to produce anti-HIV activity. The anti-HIV activities of 5′-O-ether substituted FLT and AZT (3 and 4, Scheme 2) with a stable tetradecanyl (myristyl) group were compared with hydrolyzable 5′-O-ester substituted FLT and AZT (6 and 7).
as §2

[11] = test system: HIV-1 94US3393IN (B-Wild Type); assay: PBMC multi-round infection assay, clinical isolate 94US3393IN; assay type: cell-based; conditions: Human immunodeficiency virus 1
Procedure: (§3) Based on a preliminary screening, conjugates 5 and 8 were evaluated for their ability to inhibit a drug-resistant virus in a peripheral blood mononuclear cell (PBMC) assay. In this assay, FLT, 5, and 8 were tested against B- and C-wild type and A-17 and 4755–5 multidrug-resistant (MDR) clinical isolates of HIV-1, where compounds were incubated with PBMCs for 6 h and then washed off before the addition of the virus and further culture for 7 days.
(§4) For the assessment of compounds against the wild type (WT; R5; clones = 94US3393IN [B subtype] and 98USMSC5016 [C subtype]) and drug-resistant (clones = 4755−5 and A17) HIV-1 clinical isolates, PHA-P stimulated cells from at least two normal donors were pooled, diluted in fresh media, and plated in the interior wells of a 96-well round-bottom microplate. Pooling PBMCs from more than one donor was used to minimize the variability observed between the individual donors, which results from the quantitative and qualitative differences in HIV infection and overall response to the PHA and IL-2 of primary lymphocyte populations. Each plate contained virus/cell control wells (cells + virus), experimental wells (drug + cells + virus), and compound control wells (drug + media, no cells, necessary for MTS monitoring of cytotoxicity). Test drug dilutions were prepared in microtiter tubes, and each concentration was placed in appropriate wells. Following the addition of the drug dilutions to the PBMCs, a predetermined dilution of virus stock was then placed in each test well (final MOI ≅ 0.1). Because HIV-1 is not cytopathic to PBMCs, the same assay plate can be used for both the antiviral efficacy and cytotoxicity measurements. Compounds were incubated with virus and cells in a 96-well format for 6 h. The cells were then washed by removing 75% of the medium (150 μL) and replacing it with 150 μL of fresh (no drug) medium. The plates were then centrifuged (∼200 g) for 10 min, after which 150 μL of the medium was removed, and an additional 150 μL of fresh medium was added to each well and further incubated for 6 days or until peak reverse transcriptase (RT) activity was detected. A microtiter plate-based RT reaction was utilized. Incorporated radioactivity (counts per minute, CPM) was quantified using standard liquid scintillation techniques. Compound IC50 (50%, inhibition of virus replication) was calculated using statistical software and regression analysis. A cellular uptake study was conducted for fluorescence conjugates 23 and 24 using a previously published procedure with minor modifications. All of the experiments were conducted in triplicate.

[12] = test system: HIV-1 98USMSC5016 (C-Wild Type); assay: PBMC multi-round infection assay, clinical isolate 98USMSC5016; assay type: cell-based; conditions: Human immunodeficiency virus 1
Procedure: as §3, §4

[13] = test system: HIV-1 A-17 MDR (B-NNRTI); assay: PBMC multi-round infection assay, resistant isolate A-17; assay type: cell-based; conditions: for IC50 / IC90: Human immunodeficiency virus 1, PBMC
Procedure: as §3, §4

[14] = test system: HIV-1 4755-5 MDR (B-MDR); assay: PBMC multi-round infection assay, resistant isolate 4755-5; assay type: cell-based; conditions: for IC50 / IC90: Human immunodeficiency virus 1, PBMC
Procedure: as §3, §4

[15] = Table 2, MTS, 50% effective concentration
[16] = Table 3, conjugates vs physical mixtures
[17] = Human immunodeficiency virus 1, IIIB, read-out: (X4) EC50, Table 2, single-round infection assay
[18] = read-out: (CA) EC50, Table 2, cell-associated transmission assay (IIIB)
[19] = read-out: (CA) EC50, Table 3, cell-to-cell transmission assay (IIIB)

## 5(6)-carboxyfluorescein [FAM]
[1]
  cell fluorescence (real time fluorescence microscopy): no significant fluorescence
[2]
  viable cells: at least 80%

## CCSCCCCCCCCCCCC(=O)O [12-thioethyldodecanoic acid]
[3]
  EC50: 9.4 µM

## CCCCCCCCCCCCCC(=O)OC[C@H]1O[C@@H](n2cc(C)c(=O)[nH]c2=O)C[C@@H]1F [Compound 6, 5′-O-(myristoyl)-3′-fluoro-2′,3′-dideoxythymidine]
[4]; [15]
  EC50: 606 µM
[4]; [16]
  EC50: 606 µM
[5]; [17]
  EC50: ≤ 1 µM
[5]; Human immunodeficiency virus 1, IIIB, read-out: (X4) EC50, Table 3, viral entry inhibition assay
  EC50: 0.7 µM
[6]; read-out: (R5) EC50, Table 2, single-round infection assay
  EC50: ≤ 1 µM
[6]; read-out: (R5) EC50, Table 3, viral entry inhibition assay
  EC50: 1.1 µM
[7]; [18]
  EC50: 6.4 µM
[7]; [19]
  EC50: 6.4 µM
[8]
  effect on sperm viability: did not alter vaginal cell and sperm viability
[9]
  cytotoxicity to vaginal cells: did not show significant cytotoxic effects
[10]
  anti-HIV activity (in words): significant anti-HIV activity at noncytotoxic concentrations
  antiviral index, times better than AZT: > 30 times
  antiviral index, times better than FLT: > 4 times

## CCSCCCCCCCCCCCC(=O)OC[C@H]1O[C@@H](n2cc(C)c(=O)[nH]c2=O)C[C@@H]1F [Compound 8, 3′-fluoro-2′,3′-dideoxy-5′-O-(12-thioethyldodecanoyl)thymidine]
[4]; [15]
  EC50: > 2000 µM
[5]; [17]
  EC50: ≤ 1 µM
[5]; read-out: (X4) EC50, Table 2, single-round infection assay
  EC50: 1 µM
[7]; [18]
  EC50: 2.3 µM
[11]
  IC50: 0.0006 µM
  IC90: 0.0103 µM
[12]
  IC50: 0.001 µM
  IC90: 0.0082 µM
[13]
  IC50: 0.0136 µM
  IC90: 0.0457 µM
[13]; versus FLT IC50
  fold more potent than FLT against A-17: twice as active
[14]
  IC50: 0.112 µM
  IC90: 0.662 µM
[14]; versus FLT IC50
  fold more potent than FLT against 4755-5: equally active
[8]
  effect on sperm viability: did not alter vaginal cell and sperm viability
[9]
  cytotoxicity to vaginal cells: did not show significant cytotoxic effects
[10]
  anti-HIV activity (in words): significant anti-HIV activity at noncytotoxic concentrations
  antiviral index, times better than AZT: > 30 times
  antiviral index, times better than FLT: > 4 times

## Cc1cn([C@H]2C[C@H](F)[C@@H](CO)O2)c(=O)[nH]c1=O [FLT, 3′-fluoro-2′,3′-dideoxythymidine]
[4]; [15]
  EC50: > 410 µM
[4]; [16]
  EC50: > 410 µM
[5]; Human immunodeficiency virus 1, IIIB, Table 2, single-round infection assay, read-out: (X4) EC50
  EC50: 0.8 µM
[5]; Human immunodeficiency virus 1, IIIB, Table 3, viral entry inhibition assay, read-out: (X4) EC50
  EC50: 0.8 µM
[6]; Table 2, single-round infection assay, read-out: (R5) EC50
  EC50: 0.4 µM
[6]; Table 3, viral entry inhibition assay, read-out: (R5) EC50
  EC50: 0.4 µM
[7]
  activity against cell-associated virus (in words): only inconsistently and moderately active; also recorded: not active at all
[7]; [18]
  EC50: > 410 µM
[7]; [19]
  EC50: > 410 µM
[11]
  IC50: 0.002 µM
  IC90: 0.0204 µM
[12]
  IC50: 0.002 µM
  IC90: 0.0123 µM
[13]
  IC50: 0.026 µM
  IC90: 0.0872 µM
[14]
  IC50: 0.107 µM
  IC90: 1.06 µM
